Laboratory results taken from patent US20240058339A1, “COMBINATION THERAPY FOR CANCERS WITH KRAS MUTATION” (COTHERA BIOSCIENCE, INC., priority 2019, published 2024).

Tested on: KRAS mutant colorectal cancer cells
Assay: Cellular senescence assay, separate examples with single drugs
Format: cell-based
Experimental: Senescence is a state when cells enter a stable growth arrest. Unlike a quiescent cell, a senescent cell will not re-enter the cell cycle in response to any known physiological stimuli. A biomarker of senescence is the increased level of β-galactosidase activity at pH 6.0. Cellular senescence assay was performed with Senescence β-Galactosidase Cell Staining Kit (Cell Signaling, USA) according to the manufacturer's instructions. Briefly, cells cultured in 6-well tissue culture plates were treated with the designated drugs or DMSO. The cells were continually incubated for additional 4-8 days before being fixed for further testing. For senescence assay, b-Galactosidase Staining Solution was added to the fixed cells and the plates were incubated at 37° C. to allow color to develop. Microscopic images were then taken and the cells in senescence were indicated by the development of blue color (shown as black spots in the figures). The experimental design is the same as in Example 15.

Structure (SMILES) | induction of cell senescence
COc1cccc2c1C(=O)c1c(O)c3c(c(O)c1C2=O)C[C@@](O)(C(=O)CO)C[C@@H]3O[C@H]1C[C@H](N)[C@H](O)[C@H](C)O1 [doxorubicin] | did not induce cell senescence
COc1cc([C@@H]2c3cc4c(cc3[C@@H](O[C@@H]3O[C@@H]5CO[C@@H](C)O[C@H]5[C@H](O)[C@H]3O)[C@H]3COC(=O)[C@H]23)OCO4)cc(OC)c1O [etoposide] | did not induce cell senescence
